Measurements as given in patent publication US20130323314A1, “Novel Nanoparticles of Lactoferrin Useful for Preparing a Pharmaceutical Composition Facilitating Easy Delivery of the Drug and a Process for Preparing the Same” (UNIVERSITY OF HYDERABAD, priority 2011, published 2013).
Structures can show the parent of a compound that is named as a salt. Where two headings read alike, the source gives them in different places. Marks after values point to notes of the source that are not given here.

Tests used:
[1] = in vivo; conditions: rat, iv
[2] = Pharmacokinetics and tissue distribution after subcutaneous administration; conditions: rat
[3] = Pharmacokinetics and tissue distribution after intravenous administration; conditions: rat
[4] = Pharmacokinetics and tissue distribution after intramuscular administration; conditions: rat
[5] = Pharmacokinetics and tissue distribution after oral administration; conditions: rat
[6] = test system: heart; conditions: rat, in vivo
[7] = in vivo; conditions: rat, po
[8] = in vivo; conditions: rat, im
[9] = in vivo; conditions: rat, sc

COc1cccc2c1C(=O)c1c(O)c3c(c(O)c1C2=O)C[C@@](O)(C(=O)CO)C[C@@H]3O[C@H]1C[C@H](N)[C@H](O)[C@H](C)O1 [Doxo, Doxorubicin hydrochloride]
Tmax [1]: 8 h
half-life [1]: 2.74 h
AUC ([2]; Blood): 167.94 (h) * (μg/μL)
AUMC ([2]; Blood): 1745.8 (h)^2 * (μg/μL)
Cmax ([2]; Blood): 12855 µg/mL
MRT last ([2]; Blood): 10.394 h
t½ ([2]; Blood): 7.0001 h
AUC ([2]; Heart): 467.46 (h) * (μg/μL)
AUMC ([2]; Heart): 13515 (h)^2 * (μg/μL)
Cmax ([2]; Heart): 18198 µg/mL
MRT last ([2]; Heart): 28.912 h
t½ ([2]; Heart): 18.662 h
AUC ([2]; Kidney): 2249.1 (h) * (μg/g)
AUMC ([2]; Kidney): 19205 (h)^2 * (μg/g)
Cmax ([2]; Kidney): 200.93 h
MRT last ([2]; Kidney): 8.5383 h
t½ ([2]; Kidney): 3.888 h
AUC ([2]; Liver): 1025 (h) * (μg/μL)
AUMC ([2]; Liver): 10140 (h)^2 * (μg/μL)
Cmax ([2]; Liver): 71123 µg/mL
MRT last ([2]; Liver): 9.8923 h
t½ ([2]; Liver): 5.9991 h
AUC ([2]; Spleen): 553.3 (h) * (μg/g)
AUMC ([2]; Spleen): 7927.3 (h)^2 * (μg/g)
Cmax ([2]; Spleen): 34.747 h
MRT last ([2]; Spleen): 14.327 h
t½ ([2]; Spleen): 5.3088 h
Cmax ([3]; Blood): 22286.7 µg/mL
t½ ([3]; Heart): 4.444 h
t½ ([3]; Kidney): 2.63 h
t½ ([3]; Liver): 3.432 h
t½ ([3]; Spleen): 3.833 h
AUC ([4]; Blood): 185.4 (h) * (μg/μL)
AUMC ([4]; Blood): 1581.8 (h)^2 * (μg/μL)
Cmax ([4]; Blood): 11032 µg/mL
MRT last ([4]; Blood): 8.5317 h
t½ ([4]; Blood): 4.466 h
AUC ([4]; Heart): 510.54 (h) * (μg/g)
AUMC ([4]; Heart): 12046 (h)^2 * (μg/g)
MRT last ([4]; Heart): 23.595 h
t½ ([4]; Heart): 13.27 h
AUC ([4]; Kidney): 2580.5 (h) * (μg/g)
AUMC ([4]; Kidney): 26548 (h)^2 * (μg/g)
MRT last ([4]; Kidney): 10.288 h
t½ ([4]; Kidney): 2.0438 h
AUC ([4]; Liver): 751.01 (h) * (μg/g)
AUMC ([4]; Liver): 10278 (h)^2 * (μg/g)
MRT last ([4]; Liver): 13.685 h
t½ ([4]; Liver): 4.9231 h
AUC ([4]; Spleen): 899.9 (h) * (μg/g)
AUMC ([4]; Spleen): 19234 (h)^2 * (μg/g)
MRT last ([4]; Spleen): 21.374 h
t½ ([4]; Spleen): 13.602 h
AUC ([5]; Blood): 105.24 (h) * (μg/μL)
AUMC ([5]; Blood): 1227.63 (h)^2 * (μg/μL)
Cmax ([5]; Blood): 8250 µg/mL
t½ ([5]; Blood): 3.741 h
AUC ([5]; Heart): 248.048 (h) * (μg/g)
AUMC ([5]; Heart): 3211.86 (h)^2 * (μg/g)
MRT last ([5]; Heart): 8.9708 h
Tmax ([5]; Heart): 16 h
t½ ([5]; Heart): 7.533 h
AUC ([5]; Kidney): 362.639 (h) * (μg/g)
AUMC ([5]; Kidney): 4321.31 (h)^2 * (μg/g)
t½ ([5]; Kidney): 6.47 h
AUC ([5]; Liver): 207.816 (h) * (μg/g)
AUMC ([5]; Liver): 2379.51 (h)^2 * (μg/g)
MRT last ([5]; Liver): 7.428 h
t½ ([5]; Liver): 6.099 h
AUC ([5]; Spleen): 190.928 (h) * (μg/g)
AUMC ([5]; Spleen): 2616.55 (h)^2 * (μg/g)
MRT last ([5]; Spleen): 9.2978 h
t½ ([5]; Spleen): 5.894 h
toxicity to heart (safety analysis) [6]: cardiotoxic
toxicity to heart (safety analysis) ([6]; iv): cardiotoxic
toxicity to heart (safety analysis) ([6]; po): cardiotoxic
toxicity to heart (safety analysis) ([6]; sc): cardiotoxic
Cmax ([7]; heart): 17200 ng/g
MRT last ([7]; in vivo): 8.21 h
Tmax ([7]; in vivo): 8 h
Cmax ([7]; kidney): 32900 ng/g
Cmax ([7]; liver): 17400 ng/g
Cmax ([7]; spleen): 11100 ng/g
Tmax [8]: 8 h
Tmax [9]: 8 h
